In general, IC50 refers to the midpoint of a concentration-inhibition curve.

Chain of human IRAK4 kinase domain (aa 154-460) (Q9NWZ3 154-460): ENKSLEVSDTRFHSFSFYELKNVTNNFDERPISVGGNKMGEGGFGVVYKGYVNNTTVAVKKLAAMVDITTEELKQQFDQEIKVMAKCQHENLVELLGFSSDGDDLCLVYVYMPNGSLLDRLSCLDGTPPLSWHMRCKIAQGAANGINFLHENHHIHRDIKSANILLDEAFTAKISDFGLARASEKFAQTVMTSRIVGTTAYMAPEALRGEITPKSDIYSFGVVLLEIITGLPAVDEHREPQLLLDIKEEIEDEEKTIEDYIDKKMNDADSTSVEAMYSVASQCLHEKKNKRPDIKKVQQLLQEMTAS

This test has as its target human IRAK4 kinase domain (aa 154-460) (Homo sapiens (Human), UniProt Q9NWZ3). The test is described as follows: IRAK4 Enzymatic DELFIA Assay, Protocol B. It counts as biochemical. The settings on record: human IRAK4 kinase domain (aa 154-460), 0.6 mM ATP (KM); read-out: IRAK4 DELFIA Protocol B IC50. The text has this:
IRAK4 Enzymatic DELFIA Assay, Protocol B.
On to `CC(C)Oc1cc2c(OC[C@H]3CCCNC3)nccc2cc1C(N)=O` [Example 28, 1-[(3S)-piperidin-3-ylmethoxy]-7-(propan-2-yloxy)isoquinoline-6-carboxamide], for which the IC50 turned out to be 1320 nM.

Take `CC(C)Oc1cc2c(OC[C@H]3CCCN3C(=O)CC#N)nccc2cc1C(N)=O` [Example 61, 1-{[(2R)-1-(cyanoacetyl)pyrrolidin-2-yl]methoxy}-7-(propan-2-yloxy)isoquinoline-6-carboxamide]: the concentration for half-maximal inhibition (IC50) was found to be 249 nM.

As for `CC(C)Oc1cc2c(O[C@H]3CC[C@@H]4CN(C(=O)CC#N)C[C@@H]43)nccc2cc1C(N)=O` [Example 79, 1-{[(3aR,4S,6aS)-2-(cyanoacetyl)octahydrocyclopenta[c]pyrrol-4-yl]oxy}-7-(propan-2-yloxy)isoquinoline-6-carboxamide], the half-maximal inhibitory concentration (IC50) was found to be 457 nM.

Consider `CC(C)Oc1cc2c(OC[C@@H]3CCCN(C(=O)CC#N)C3)nccc2cc1C(N)=O` [Example 67, 1-{[(3R)-1-(cyanoacetyl)piperidin-3-yl]methoxy}-7-(propan-2-yloxy)isoquinoline-6-carboxamide], for which the IC50 was 1730 nM.

For `CC(C)Oc1cc2c(OC3CCC34CCNCC4)ccnc2cc1C(N)=O` (stereo not drawn) [Example 52, 4-(7-azaspiro[3.5]non-1-yloxy)-6-(propan-2-yloxy)quinoline-7-carboxamide], the IC50 came to 4240 nM.

As to `CC(C)Oc1cc2c(OCC3CCCCN3)nccc2cc1C(N)=O` (stereo not drawn) [Example 43, 1-(piperidin-2-ylmethoxy)-7-(propan-2-yloxy)isoquinoline-6-carboxamide], the IC50 worked out at 3320 nM.

As to `CC(C)Oc1cc2c(OCC3CCCCN3C(=O)CC#N)ccnc2cc1C(N)=O` (stereo not drawn) [Example 99, 4-{[1-(cyanoacetyl)piperidin-2-yl]methoxy}-6-(propan-2-yloxy)quinoline-7-carboxamide], the IC50 stood at 524 nM.

In the case of `CC(C)Oc1cc2c(OCC3(F)CCNCC3)nccc2cc1C(N)=O` [Example 38, 1-[(4-fluoropiperidin-4-yl)methoxy]-7-(propan-2-yloxy)isoquinoline-6-carboxamide], the IC50 is 4640 nM.

As to `CC(C)Oc1cc2c(OCC3CNC(=O)C3)nccc2cc1C(N)=O` (stereo not drawn) [Example 111, 1-[(5-oxopyrrolidin-3-yl)methoxy]-7-(propan-2-yloxy)isoquinoline-6-carboxamide], the IC50 worked out at 196 nM.

Take `CC(C)Oc1cc2c(OCC3CCC3)ccnc2cc1C(N)=O` [Example 9, 4-(cyclobutylmethoxy)-6-(propan-2-yloxy)quinoline-7-carboxamide]: the IC50 is 598 nM.

On to `CC(C)Oc1cc2c(OC[C@@H]3CCCN3C)nccc2cc1C(N)=O` [Example 31, 1-{[(2S)-1-methylpyrrolidin-2-yl]methoxy}-7-(propan-2-yloxy)isoquinoline-6-carboxamide], for which the IC50 is 2620 nM.

On to `CC(C)Oc1cc2c(OC[C@H]3CNCCO3)nccc2cc1C(N)=O` [Example 47, 1-[(2R)-morpholin-2-ylmethoxy]-7-(propan-2-yloxy)isoquinoline-6-carboxamide], for which the IC50 amounted to 2790 nM.

Turning to `CC(C)Oc1cc2c(O[C@@H]3C[C@H]4C[C@@H]3CN4)nccc2cc1C(N)=O` [Example 02, 1-[(1R,4R,5R)-2-azabicyclo[2.2.1]hept-5-yloxy]-7-(propan-2-yloxy)isoquinoline-6-carboxamide], the IC50 came to 217 nM.

As for `CC(C)Oc1cc2c(OC[C@]34CNC(=O)[C@H]3C4)nccc2cc1C(N)=O` [Example 175, 1-{[(1S,5S)-4-oxo-3-azabicyclo[3.1.0]hex-1-yl]methoxy}-7-(propan-2-yloxy)isoquinoline-6-carboxamide], the half-maximal inhibitory concentration (IC50) turned out to be 101 nM.

For the molecule `CC(C)Oc1cc2c(OC[C@H]3CCNC3)ccnc2cc1C(N)=O` [Example 50, 6-(propan-2-yloxy)-4-[(3S)-pyrrolidin-3-ylmethoxy]quinoline-7-carboxamide], the IC50 was 701 nM.

Turning to `COc1cc2c(OC[C@@H]3NC(=O)CC3(C)C)nccc2cc1C(N)=O` [Example 222, 1-{[(2R)-3,3-dimethyl-5-oxopyrrolidin-2-yl]methoxy}-7-methoxyisoquinoline-6-carboxamide], the IC50 amounted to 1870 nM.

For the molecule `CC(C)Oc1cc2c(OC[C@H]3COCCN3C(=O)CC#N)nccc2cc1C(N)=O` [Example 64, 1-{[(3R)-4-(cyanoacetyl)morpholin-3-yl]methoxy}-7-(propan-2-yloxy)isoquinoline-6-carboxamide], the IC50 came to 641 nM.

Consider `CC(C)Oc1cc2c(OC[C@@H]3CCCNC3)ccnc2cc1C(N)=O` [Example 3, 4-[(3R)-piperidin-3-ylmethoxy]-6-(propan-2-yloxy)quinoline-7-carboxamide], for which the IC50 came out at 2240 nM.

Consider `CC(C)Oc1cc2c(O[C@@H]3CC[C@H]4CC(=O)N[C@H]43)nccc2cc1C(N)=O` [Example 130, 1-{[(3aS,6R,6aR)-2-oxooctahydrocyclopenta[b]pyrrol-6-yl]oxy}-7-(propan-2-yloxy)isoquinoline-6-carboxamide], for which the IC50 was 417 nM.

Consider `CC(C)Oc1cc2c(OC3C[C@@H]4C[C@H]3CN(C(=O)CC#N)C4)ccnc2cc1C(N)=O` (stereo in doubt) [Example 92, 4-{[(1S,5S,6S)-3-(cyanoacetyl)-3-azabicyclo[3.2.1]oct-6-yl]oxy}-6-(propan-2-yloxy)quinoline-7-carboxamide], for which the IC50 came to 473 nM.

As to `CC(C)Oc1cc2c(OC[C@H]3CCN(C(=O)CC#N)C3)nccc2cc1C(N)=O` [Example 66, 1-{[(3S)-1-(cyanoacetyl)pyrrolidin-3-yl]methoxy}-7-(propan-2-yloxy)isoquinoline-6-carboxamide], the IC50 is 255 nM.

Regarding `CC(C)Oc1cc2c(OC[C@H]3CCCO3)ccnc2cc1C(N)=O` [Example 15, 6-(propan-2-yloxy)-4-[(2R)-tetrahydrofuran-2-ylmethoxy]quinoline-7-carboxamide], the IC50 was 2970 nM.

`CC(C)Oc1cc2c(OC[C@@H]3CCN3)nccc2cc1C(N)=O` [Example 119, 1-[(2S)-azetidin-2-ylmethoxy]-7-(propan-2-yloxy)isoquinoline-6-carboxamide]: the concentration for half-maximal inhibition (IC50) came to 1430 nM.

Consider `CC(C)Oc1cc2c(OC[C@H]3CCCNC3)ccnc2cc1C(N)=O` [Example 2, 4-[(3S)-piperidin-3-ylmethoxy]-6-(propan-2-yloxy)quinoline-7-carboxamide], for which the IC50 was 4500 nM.

As for `CC[C@H]1CN(C(=O)CC#N)C[C@@H]1COc1nccc2cc(C(N)=O)c(OC(C)C)cc12` [Example 80, 1-{[(3R,4R)-1-(cyanoacetyl)-4-ethylpyrrolidin-3-yl]methoxy}-7-(propan-2-yloxy)isoquinoline-6-carboxamide], the concentration for half-maximal inhibition (IC50) worked out at 333 nM.

With `CC(C)Oc1cc2c(OC[C@H]3CCCN(C(=O)CC#N)C3)ccnc2cc1C(N)=O` [Example 93, 4-{[(3S)-1-(cyanoacetyl)piperidin-3-yl]methoxy}-6-(propan-2-yloxy)quinoline-7-carboxamide], the IC50 is 1520 nM.

`CC(C)Oc1cc2c(OCC3(C)CCC3)ccnc2cc1C(N)=O` [Example 13, 4-[(1-methylcyclobutyl)methoxy]-6-(propan-2-yloxy)quinoline-7-carboxamide]: the IC50 was found to be 383 nM.

Regarding `CC(C)Oc1cc2c(OCC3CCNC(=O)C3)nccc2cc1C(N)=O` (stereo not drawn) [Example 138, 1-[(2-oxopiperidin-4-yl)methoxy]-7-(propan-2-yloxy)isoquinoline-6-carboxamide], the IC50 came out at 1040 nM.

Take `CC(C)Oc1cc2c(OC[C@@H]3CCCN3C(=O)CC#N)nccc2cc1C(N)=O` [Example 63, 1-{[(2S)-1-(cyanoacetyl)pyrrolidin-2-yl]methoxy}-7-(propan-2-yloxy)isoquinoline-6-carboxamide]: the IC50 amounted to 252 nM.

Consider `CC(C)Oc1cc2c(OC[C@@H]3CN(C(=O)CC#N)CCO3)nccc2cc1C(N)=O` [Example 75, 1-{[(2S)-4-(cyanoacetyl)morpholin-2-yl]methoxy}-7-(propan-2-yloxy)isoquinoline-6-carboxamide], for which the IC50 amounted to 4040 nM.

For `CC(C)Oc1cc2c(OC[C@H]3CNC(=O)O3)ccnc2cc1C(N)=O` [Example 57, 4-{[(5R)-2-oxo-1,3-oxazolidin-5-yl]methoxy}-6-(propan-2-yloxy)quinoline-7-carboxamide], the IC50 stood at 5.8 nM.

Turning to `CC(C)Oc1cc2c(OCC3COC(=O)N3C)nccc2cc1C(N)=O` (stereo not drawn) [Example 29, 1-[(3-methyl-2-oxo-1,3-oxazolidin-4-yl)methoxy]-7-(propan-2-yloxy)isoquinoline-6-carboxamide], the half-inhibitory concentration (IC50) was 76 nM.

For `CC(C)Oc1cc2c(OC[C@@H]3CNCCO3)ccnc2cc1C(N)=O` [Example 51, 4-[(2S)-morpholin-2-ylmethoxy]-6-(propan-2-yloxy)quinoline-7-carboxamide], the IC50 is 2410 nM.

For `CC(C)Oc1cc2c(OCC3CCOC3)ccnc2cc1C(N)=O` (stereo not drawn) [Example 10, 6-(propan-2-yloxy)-4-(tetrahydrofuran-3-ylmethoxy)quinoline-7-carboxamide], the half-inhibitory concentration (IC50) worked out at 752 nM.

On to `CC(C)Oc1cc2c(OC[C@H]3CCNC3)nccc2cc1C(N)=O` [Example 49, 7-(propan-2-yloxy)-1-[(3S)-pyrrolidin-3-ylmethoxy]isoquinoline-6-carboxamide], for which the IC50 is 451 nM.

Take `CO[C@H]1CNC[C@@H]1COc1nccc2cc(C(N)=O)c(OC(C)C)cc12` [Example 34, 1-{[(3R,4R)-4-methoxypyrrolidin-3-yl]methoxy}-7-(propan-2-yloxy)isoquinoline-6-carboxamide]: the IC50 came out at 483 nM.

With `CC(C)Oc1cc2c(O[C@@H]3CC4CCC3C4)ccnc2cc1C(N)=O` (stereo partly drawn) [Example 14, 4-[(2R)-bicyclo[2.2.1]hept-2-yloxy]-6-(propan-2-yloxy)quinoline-7-carboxamide], the IC50 came to 231 nM.

For the molecule `CC(C)Oc1cc2c(OCC3CCCO3)ccnc2cc1C(N)=O` (stereo not drawn) [Example 11, 6-(propan-2-yloxy)-4-(tetrahydrofuran-2-ylmethoxy)quinoline-7-carboxamide], the IC50 was 3230 nM.

As to `CC(C)Oc1cc2c(OCC3COC3)ccnc2cc1C(N)=O` [Example 6, 4-(oxetan-3-ylmethoxy)-6-(propan-2-yloxy)quinoline-7-carboxamide], the IC50 amounted to 618 nM.

These data come from patent publication US10329302B2, “Bicyclic-fused heteroaryl or aryl compounds” (Pfizer Inc., priority 2014, dated 2019).
